In patent US8758816B2, “Compositions comprising azelastine and methods of use thereof” (priority 2004, dated 2014):
Structures can show the parent of a compound that is named as a salt.

What was measured:
[1] = Leaching of azelastine into the polymer of unit dose containers; format: physicochemical
[2] = tested on: patients with seasonal allergic rhinitis (SAR); experiment: MP 428 study: adverse events, Safety Population; format: in vivo, human
Description: A two-week, randomized, double-blind study, which evaluated the effects of the co-administration of ASTELIN® (azelastine hydrochloride (HCl)) and FLONASE® (fluticasone propionate) compared to either product alone in patients with seasonal allergic rhinitis (SAR) was conducted during the 2006 Texas mountain cedar season. After a 5-day placebo lead-in period, 151 patients with moderate-to-severe allergic rhinitis symptoms were randomized to either: (1) (49 total patients) ASTELIN® (azelastine hydrochloride (HCl)) plus placebo saline nasal spray 2 sprays per nostril, 15 minutes apart, twice daily (AM & PM); (2) (50 total patients) FLONASE® (fluticasone propionate) plus placebo saline nasal spray, 2 sprays per nostril, 15 minutes apart, once daily (AM) and two sessions of placebo saline nasal spray, 2 sprays per nostril, 15 minutes apart (PM); or (3) (52 total patients) the co-administration of ASTELIN® (azelastine hydrochloride (HCl)) 2 sprays per nostril plus FLONASE® (fluticasone propionate) 2 sprays per nostril (AM), 15 minutes apart, and ASTELIN® (azelastine hydrochloride (HCl)) 2 sprays per nostril plus placebo saline nasal spray, 15 minutes apart, (PM) for a 2-week double-blind treatment period.
The most common adverse events (AEs) were bitter taste (8.2% in ASTELIN® (azelastine hydrochloride (HCl)) group, 2.0% in FLONASE® (fluticasone propionate) group, 13.5% in co-administration group) and headache (4.1% in ASTELIN® (azelastine hydrochloride (HCl)) group, 4.0% in FLONASE® (fluticasone propionate) group, 5.8% in co-administration group). No other AE was reported by more than one patient in any treatment group. There were no discontinuations due to AEs.

[3] = Possibly related to study drug, Safety Population
[4] = Probably related to study drug, Safety Population
[5] = Total (possibly or probably related), Safety Population

For `CN1CCCC(n2nc(Cc3ccc(Cl)cc3)c3ccccc3c2=O)CC1` (racemic) [Azelastine, (±)-1-(2H)-phthalazinone, 4-[(4-chlorophenyl)methyl]-2-(hexahydro-1-methyl-1H-azepin-4-yl)-, mono-hydrochloride], the “leaching into the container material” value ([1]; HDPE unit dose containers, in contrast to lower-density PE) was “reduce, substantially reduce, or eliminate leaching”, the “leachability into the container material” value ([1]; containers of polymers other than HDPE, including polyethylenes of lower density) was “high degree of undesirable leachability” and the “Primary Reason for Discontinuation From Study: Adverse Event” value ([2]; All Randomized Patients) was 0 (0.0) N (%). For the same compound, the “Number (%) Patients With Treatment-Related AEs by Maximum Severity” value ([2]; Mild) was 1 (2.0) Number (%), the “Number (%) Patients With Treatment-Related AEs by Maximum Severity” value ([2]; Moderate) was 0 (0.0) Number (%) and the “Treatment-Related Adverse Events: Any Adverse Event” value [2, 3] was 1 (2.0) No. of Patients (%). For the same compound, the “Treatment-Related Adverse Events: DRY MOUTH” value [2, 3] was 0 (0.0) No. of Patients (%), the “Treatment-Related Adverse Events: DYSGEUSIA” value [2, 3] was 1 (2.0) No. of Patients (%) and the “Treatment-Related Adverse Events: EPISTAXIS” value [2, 3] was 0 (0.0) No. of Patients (%). For the same compound, the “Treatment-Related Adverse Events: GASTROINTESTINAL DISORDERS, Any Preferred Term” value [2, 3] was 1 (2.0) No. of Patients (%), the “Treatment-Related Adverse Events: HEADACHE” value [2, 3] was 0 (0.0) No. of Patients (%) and the “Treatment-Related Adverse Events: NASAL DISCOMFORT” value [2, 3] was 0 (0.0) No. of Patients (%). For the same compound, the “Treatment-Related Adverse Events: NERVOUS SYSTEM DISORDERS, Any Preferred Term” value [2, 3] was 0 (0.0) No. of Patients (%), the “Treatment-Related Adverse Events: RESPIRATORY, THORACIC AND MEDIASTINAL DISORDERS, Any Preferred Term” value [2, 3] was 0 (0.0) No. of Patients (%) and the “Treatment-Related Adverse Events: STOMACH DISCOMFORT” value [2, 3] was 0 (0.0) No. of Patients (%). For the same compound, the “Treatment-Related Adverse Events: Any Adverse Event” value [2, 4] was 3 (6.1) No. of Patients (%), the “Treatment-Related Adverse Events: DRY MOUTH” value [2, 4] was 0 (0.0) No. of Patients (%) and the “Treatment-Related Adverse Events: DYSGEUSIA” value [2, 4] was 3 (6.1) No. of Patients (%). For the same compound, the “Treatment-Related Adverse Events: EPISTAXIS” value [2, 4] was 0 (0.0) No. of Patients (%), the “Treatment-Related Adverse Events: GASTROINTESTINAL DISORDERS, Any Preferred Term” value [2, 4] was 3 (6.1) No. of Patients (%) and the “Treatment-Related Adverse Events: HEADACHE” value [2, 4] was 0 (0.0) No. of Patients (%). The “Treatment-Related Adverse Events: NASAL DISCOMFORT” value [2, 4] was 0 (0.0) No. of Patients (%), the “Treatment-Related Adverse Events: NERVOUS SYSTEM DISORDERS, Any Preferred Term” value [2, 4] was 0 (0.0) No. of Patients (%) and the “Treatment-Related Adverse Events: RESPIRATORY, THORACIC AND MEDIASTINAL DISORDERS, Any Preferred Term” value [2, 4] was 0 (0.0) No. of Patients (%). The “Treatment-Related Adverse Events: STOMACH DISCOMFORT” value [2, 4] was 0 (0.0) No. of Patients (%), the “Number (%) Patients With Any AEs: All Treatment-Related AEs” value ([2]; Safety Population) was 4 (8.2) Number (%) and the “Number (%) of Deaths” value ([2]; Safety Population) was 0 (0.0) Number (%). The “Number (%) of Patients With Serious AEs” value ([2]; Safety Population) was 0 (0.0) Number (%), the “Number of Adverse Events Reported: All Treatment-Emergent AEs” value ([2]; Safety Population) was 9 and the “Number of Adverse Events Reported: All Treatment-Related AEs” value ([2]; Safety Population) was 4. For the same compound, the “Number (%) Patients With Treatment-Related AEs by Maximum Severity” value ([2]; Severe) was 3 (6.1) Number (%), the “Treatment-Emergent AE: Any Adverse Event” value ([2]; Total) was 8 (16.3) No. of Patients (%) and the “Treatment-Emergent AE: DRY MOUTH” value ([2]; Total) was 0 (0.0) No. of Patients (%). The “Treatment-Emergent AE: DYSGEUSIA” value ([2]; Total) was 4 (8.2) No. of Patients (%), the “Treatment-Emergent AE: EAR AND LABYRINTH DISORDERS, Any Preferred Term” value ([2]; Total) was 1 (2.0) No. of Patients (%) and the “Treatment-Emergent AE: EAR PAIN” value ([2]; Total) was 1 (2.0) No. of Patients (%). The “Treatment-Emergent AE: EPISTAXIS” value ([2]; Total) was 0 (0.0) No. of Patients (%), the “Treatment-Emergent AE: GASTROINTESTINAL DISORDERS, Any Preferred Term” value ([2]; Total) was 4 (8.2) No. of Patients (%) and the “Treatment-Emergent AE: HEADACHE” value ([2]; Total) was 2 (4.1) No. of Patients (%). The “Treatment-Emergent AE: MUSCULOSKELETAL AND CONNECTIVE TISSUE DISORDERS, Any Preferred Term” value ([2]; Total) was 1 (2.0) No. of Patients (%), the “Treatment-Emergent AE: MYALGIA” value ([2]; Total) was 0 (0.0) No. of Patients (%) and the “Treatment-Emergent AE: NASAL DISCOMFORT” value ([2]; Total) was 0 (0.0) No. of Patients (%). For the same compound, the “Treatment-Emergent AE: NECK PAIN” value ([2]; Total) was 1 (2.0) No. of Patients (%), the “Treatment-Emergent AE: NERVOUS SYSTEM DISORDERS, Any Preferred Term” value ([2]; Total) was 2 (4.1) No. of Patients (%) and the “Treatment-Emergent AE: PHARYNGOLARYNGEAL PAIN” value ([2]; Total) was 1 (2.0) No. of Patients (%). The “Treatment-Emergent AE: RESPIRATORY, THORACIC AND MEDIASTINAL DISORDERS, Any Preferred Term” value ([2]; Total) was 1 (2.0) No. of Patients (%), the “Treatment-Emergent AE: STOMACH DISCOMFORT” value ([2]; Total) was 0 (0.0) No. of Patients (%) and the “Treatment-Related Adverse Events: Any Adverse Event” value [2, 5] was 4 (8.2) No. of Patients (%). For the same compound, the “Treatment-Related Adverse Events: DRY MOUTH” value [2, 5] was 0 (0.0) No. of Patients (%), the “Treatment-Related Adverse Events: DYSGEUSIA” value [2, 5] was 4 (8.2) No. of Patients (%) and the “Treatment-Related Adverse Events: EPISTAXIS” value [2, 5] was 0 (0.0) No. of Patients (%). The “Treatment-Related Adverse Events: GASTROINTESTINAL DISORDERS, Any Preferred Term” value [2, 5] was 4 (8.2) No. of Patients (%), the “Treatment-Related Adverse Events: HEADACHE” value [2, 5] was 0 (0.0) No. of Patients (%) and the “Treatment-Related Adverse Events: NASAL DISCOMFORT” value [2, 5] was 0 (0.0) No. of Patients (%). For the same compound, the “Treatment-Related Adverse Events: NERVOUS SYSTEM DISORDERS, Any Preferred Term” value [2, 5] was 0 (0.0) No. of Patients (%), the “Treatment-Related Adverse Events: RESPIRATORY, THORACIC AND MEDIASTINAL DISORDERS, Any Preferred Term” value [2, 5] was 0 (0.0) No. of Patients (%) and the “Treatment-Related Adverse Events: STOMACH DISCOMFORT” value [2, 5] was 0 (0.0) No. of Patients (%). The “Treatment-Emergent AE: DRY MOUTH” value ([2]; max severity Mild) was 0 (0.0) No. of Patients (%), the “Treatment-Emergent AE: DYSGEUSIA” value ([2]; max severity Mild) was 1 (2.0) No. of Patients (%) and the “Treatment-Emergent AE: EAR AND LABYRINTH DISORDERS, Any Preferred Term” value ([2]; max severity Mild) was 0 (0.0) No. of Patients (%). For the same compound, the “Treatment-Emergent AE: EAR PAIN” value ([2]; max severity Mild) was 0 (0.0) No. of Patients (%), the “Treatment-Emergent AE: EPISTAXIS” value ([2]; max severity Mild) was 0 (0.0) No. of Patients (%) and the “Treatment-Emergent AE: GASTROINTESTINAL DISORDERS, Any Preferred Term” value ([2]; max severity Mild) was 1 (2.0) No. of Patients (%). The “Treatment-Emergent AE: HEADACHE” value ([2]; max severity Mild) was 1 (2.0) No. of Patients (%) and the “Treatment-Emergent AE: MUSCULOSKELETAL AND CONNECTIVE TISSUE DISORDERS, Any Preferred Term” value ([2]; max severity Mild) was 1 (2.0) No. of Patients (%).
